Among the data in ChEMBL document CHEMBL1201862, “PubChem BioAssay data set” (2004) are IC50 and AC50 values, retold here.

The source made the active and inactive calls.

As a reminder, the AC50 is the midpoint of the concentration-response curve, whichever way the signal moves.

Experiment [1] in a line: glucagon-like peptide-1 release potency in STC-1, concentration-response, half-maximal inhibitory concentration in the STC-1 line (AID 1117345). In kind it is functional, cell-based.
Experiment [2] is described as follows: Potency on glucagon-like peptide 1 release, dose-response in NCI-H716 cell line, half maximal inhibitory concentration (AID 1117344). It counts as functional, cell-based.
Experiment [3] can be described thus: Reduced DLD-1 viability, concentration-response, CellTiter-Glo luminescence (AID 1117352). In kind it is functional.
Experiment [4] can be described thus: CellTiter-Glo luminescence survival assay, SW480 colon tumor line, concentration-response curve, half-maximal inhibitory concentration (AID 1117338). It counts as functional. For orientation: In ATP-based viability assays light output follows the ATP content of the culture.
Experiment [5] is described as follows: HCT116 cell viability decrease, GSK3B pretreatment – CellTiter-Glo, IC50, dose response (AID 1117339). It counts as functional. To be noted: HCT-116.
A short description of experiment [6]: cytotoxicity toward HT-29 cells – cell-based, CellTiter-Glo luminescence, IC50, dose response (AID 1117330). It counts as functional.
Experiment [7] can be described thus: RKO cell viability reduction, dose response, CellTiter-Glo luminescence (AID 1117322). It counts as functional.
Experiment [8] is described as follows: SNU-C1 cell viability reduction, dose response, CellTiter-Glo luminescence (AID 1117323). It counts as functional, cell-based.
The nature of experiment [9]: cytotoxicity toward Colo320 cells – cell-based, CellTiter-Glo luminescence, IC50, dose response (AID 1117334). In kind it is functional. The conditions noted are these: COLO 320.
Experiment [10] can be described thus: cytotoxicity toward HCT116 cells – cell-based, CellTiter-Glo luminescence, IC50, dose response (AID 1117332). To be noted: HCT-116. In kind it is functional.
A short description of experiment [11]: IC50 of Artemis nuclease activity blockers – biochemical, fluorescence intensity, dose response (AID 720701).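 Also: Artemis endonuclease enzyme.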 In kind it is functional.
Experiment [12] deals with T1, Low molecular weight phosphotyrosine protein phosphatase (Homo sapiens, UniProt P24666).
T1 sequence (P24666 whole entry): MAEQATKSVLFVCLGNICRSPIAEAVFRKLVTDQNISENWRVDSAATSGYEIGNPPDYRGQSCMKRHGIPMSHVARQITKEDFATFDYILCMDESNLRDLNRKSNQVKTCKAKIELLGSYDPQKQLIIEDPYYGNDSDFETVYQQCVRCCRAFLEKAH
It counts as functional. To be noted: read-out: IC50_Mean.

Experiment [13] is described as follows: Plasmodium falciparum Dd2 Sybr green parasite growth Measured in Cell-Based and Microorganism Combination System Using Plate Reader - 2153-01_Inhibitor_Dose_DryPowder_Activity_Set3. It counts as functional.
Experiment [14] in a line: Dd2 malaria parasite growth inhibition potency – SYBR Green, dry powder samples, dose response (AID 1159566).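 Also: potency for growth inhibition with lower SYBR green DNA signal.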 In kind it is functional, cell-based.
Experiment [15] in a line: Dd2 parasite growth inhibition in erythrocytes – SYBR Green, dry powder samples, set 9, dose response (AID 1159568). It counts as functional, cell-based.
The nature of experiment [16]: P. falciparum Dd2 growth inhibitors, dose response, SYBR Green, cherry-picked samples (AID 1159567). It counts as functional, cell-based.
Experiment [17] in a line: growth inhibition of yeast DHODH-expressing 3D7 parasites – SYBR Green, dry powder samples, dose response (AID 1159570).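 Also: parasite growth measured after 72 hours of compound exposure.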 In kind it is functional, cell-based.
A short description of experiment [18]: toxicity to human HepG2 hepatoma cells – cell-based, plate reader, dry powder samples, cytotoxicity control, dose response (AID 1159569).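 Also: inhibitor potency with signal falling toward the positive control level.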 It counts as functional.
The nature of experiment [19]: toxicity to human hepatoma HepG2 cells – cell-based, cherry-picked samples, cytotoxicity control, dose response (AID 1159577). It counts as functional.
Experiment [20] is described as follows: growth inhibition of PfATP4-mutant resistant parasites – NITD609-resistant line, SYBR Green, dry powder, dose response (AID 1159571).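 Also: parasites synchronized at ring stage by sorbitol before testing.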 It counts as functional, cell-based.
Experiment [21] is described as follows: loss of A549 viability via ATP – cell-based, plate reader, dry powder, set 7, cytotoxicity control, dose response (AID 743318). In kind it is functional.
Experiment [22] is described as follows: viability loss in human Jurkat cells – cell-based, luminescence, cytotoxicity control for P. falciparum gametocyte viability project, dose response (AID 1117277).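 Also: potency reflects loss of cellular ATP meaning fewer viable cells.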 In kind it is functional.
Experiment [23] can be described thus: viability inhibitors of stage V gametocytes – luminescence, dose response (AID 1117278).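 Also: gametocytes exposed to compound for 24 hours.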 In kind it is functional, cell-based.
Another experiment is described as follows: cells. In kind it is functional, cell-based. To be noted: INS-1E.
A short description of experiment [24]: IC50 of insulin release inhibition, rat insulinoma INS-1E line, 5 mM glucose, cell-based (AID 1117331). It counts as functional.
The nature of experiment [25]: ATP-based viability loss in HEK293T cells – cell-based, CellTiter-Glo luminescence, dry powder, set 2, cytotoxicity control, dose response (AID 720595). It counts as functional. To be noted: HEK293.
Experiment [26] in a line: ATP-based viability loss in HeLa cells – cell-based, CellTiter-Glo luminescence, dry powder, set 2, cytotoxicity control, dose response (AID 720593). In kind it is functional.
The target in experiment [27] is Heat shock protein HSP 90-alpha (Homo sapiens, UniProt P07900). Nature of the experiment: Luminescence-based dose response biochemical high throughput screening assay for inhibitors of the Heat Shock Protein 90 (HSP90). [Related pubchem assays: 1831 (Summary AID.), 1846 (Confirmation screen.), 1789 (Primary screen.)].
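For IC50 Mean in this document: Dose-response confirmation assay measuring inhibition of LMPTP enzyme activity by fluorescence intensity read-out.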

As for `CN(C)[C@@H]1C(O)=C(C(=O)NCN2CCCC2)C(=O)[C@@]2(O)C(O)=C3C(=O)c4c(O)cccc4[C@@](C)(O)C3C[C@@H]12` (stereo partly drawn), the IC50 in experiment [1] and in experiment [2] was > 40 µM (inactive) throughout.
Consider `CNC(=O)Oc1cccc2ccccc12` [CARBARIL], for which the IC50 in experiment [3], in [4], in experiment [5], in experiment [6], in experiment [7] and in experiment [8] was > 20 µM (inactive) throughout. In addition, the IC50 in [9] and in experiment [10] was > 20 µM (inactive) in each case.
Regarding `O=C(Cc1cn2ccsc2n1)Nc1nc2c(s1)CN(Cc1ccccc1)CC2`, the IC50 is > 20 µM (inactive) in experiment [11] and 44.6 µM (inactive) in experiment [12].
With `CCCNC(=O)N1[C@H](C#N)[C@H](c2ccc(C#Cc3ccc(F)cc3)cc2)[C@@H]1CO`, the AC50 is 0.15 µM (active) in experiment [13]; 0.123 µM (active) in [14]; 0.0575 µM (active) in [15]; < 0.3 µM (active) in experiment [16]; 3.48 µM (active) in experiment [17]; 41.4 µM (active) in [18]. In addition, the AC50 in experiment [19] was > 39 µM (inactive); in experiment [20], 0.101 µM (active).
Consider `Cc1ccc(C(C)C)c(OCCn2c(=S)[nH]c3cccc(F)c32)c1`, for which the AC50 in [21] is 30.2 µM (active).
Regarding `O=C(O)c1ccc(-c2ccccc2)nc1O`, the IC50 was > 83.2 µM (inactive) in experiment [22] and > 109 µM (inactive) in [23].
With `CC(C)(Cc1c[nH]c2ccccc12)NCC(O)COc1ccccc1C#N` (stereo not drawn) [BUCINDOLOL], the IC50 in “cells” was > 33.3 µM (inactive); in experiment [24], 15 µM (inactive).
On to `CCCCC(=O)NC(c1ccco1)c1ccc2cccnc2c1O` (stereo not drawn), for which the values for the half-maximal activity concentration (AC50) in experiment [25] and in experiment [26] were 3.78 µM (active) and 28.4 µM (active), respectively.
Regarding `COC(=O)c1ccc(NC(=O)c2ccc(C)cc2)o1`, the IC50 in experiment [27] is given as > 60 µM (not active).
